# Assay results published in patent US10030256B2, “Method for producing lysophosphatidylethanolamine 18:1 from microorganism of Pseudomonas sp” (KOREA RESEARCH INSTITUTE OF BIOSCIENCE AND BIOTECHNOLOGY, priority 2015, dated 2018).
# Key:
# [1] = system: Pst-avrRpm1; assay: Recovery of local immune response in pla2α mutant plant by exogenous lipid after Pst-avrRpm1 inoculation; format: in vivo, Arabidopsis thaliana; conditions: for complementation of impaired local immunity of pla2α mutant plants (bacterial growth assay): FIG. 3B
# Procedure: Arabidopsis plant was cultivated at temperature of 22° C. and relative humidity of 60% with conditions including 16 hours of light period and 120 μmoles m^−2s^−1 of photon flux density. Because the plant defense response is age-dependent, fully mature leaves of the 4 week old plant were used for various analyses. Arabidopsis (Arabidopsis thaliana) mutants including pla2α, pla2α-II, sid2, npr1-5, rps2 and ein2 (Salk_099415, CS857021, Salk_042603, CS3724, Salk_087581, CS3071 and CS8072, respectively) were purchased from Arabidopsis Biological Resource Center, USA. Arabidopsis mutants eds1 and pad4-5 were obtained from S. A. Whitham (Iowa State University, USA) and J. E. Parker (Max Planck Institute for Plant Breeding Research, Germany), respectively. The transgenic line expressing NPR1-eGFP and NahG were obtained from X. Dong (Duke University, USA) and O. M. Park (Korea University, South Korea), respectively.
# (§1) Pseudomonas syringae pv. tomato DC3000 (hereinbelow, Pst) and Pst-avrRpm1, which is avrRpm1-containing bacterial strain with no virulency, were obtained from Y. J. Kim (Korea University, South Korea). Pst-avrRpt2, which is avrRpt2-containing bacterial strain with no virulency, was obtained from J. M. Park (KRIBB, South Korea) and Pst-avrRps4, which is avrRps4-containing bacterial strain with no virulency, was obtained from R. Innes (Indiana University, USA). The bacterial strains were cultured and treated according to the method of Katagiri, et al. (Arabidopsis Book, 2002, 1:e0039).
# (§2) Every phospholipid was purchased from Avanti Polar Lipids Inc. (USA), and free fatty acids (16:0, 18:0 and 18:1) were purchased from Sigma Co. (USA). The solvent was dried under nitrogen gas stream, and the lipids were suspended therein according to ultrasonication so as to have final concentration of 100 nmol ml^−1 in 0.018% silwet L-77 (or 200 nmol ml^−1 in H2O).
# (§3) Based on the analysis of pla2α mutant plants compared to wild type, we hypothesized that the defect in immune responses of the pla2α mutant may be due to the failure to generate the lipid products that mediate downstream immune responses. To test this hypothesis, we supplemented pla2α mutant with LPE18:1 1.5 h after inoculation of Pst-avrRpm1. […] Very importantly, LPE by itself renders local immunity in the absence of avirulent Pst (FIGS. 3C-3E). […] In addition, disease symptoms were much reduced in LPE-sprayed leaves compared to mock-treated ones (FIG. 3E).
# [2] = system: PR1, PDF1.2, VSP1, JMT, ICS1, PAL1, ACS, LOX2; assay: Gene expression analysis (RT-PCR / real-time qPCR) in Arabidopsis leaves after treatment; format: in vivo, Arabidopsis thaliana
# Procedure: Total RNA was extracted by using RNA isolator (Gibco, USA) from a sample which has been frozen with liquid nitrogen (i.e., 2 leaves per sample). Reverse transcription polymerase chain reaction (RT-PCR) and real-time quantitative polymerase chain reaction (real-time qPCR) were carried out by using gene-specific primers. For the analysis of a real-time quantitative polymerase chain reaction, Applied Biosystems 7900 Real-Time PCR SYSTEM™ was used. 2×SYBR® Green qPCR master mix was used for PCT amplification. The analyzed data were normalized first against the amount of ACTIN1 gene, and the fold increase of gene expression according to treatment was determined in comparison with a mock or non-treatment plant (1.0 fold). Reference gene as an alternative (AT1G13320) was obtained from the previous study (Hong et al., 2010, Plant Cell Physiol. 51:1694-1706). The gene-specific primers that are used in the present invention are as described in Table 1 and Table 2 below.
# as §2
# (§4) The mature form of the recombinant PLA2α protein was produced in Escherichia coli which is fused with Dsbc protein. According to the method described before (Ryu et al., 2005, Biochem Biophys Acta. 1736:144-151), it was purified by affinity chromatography. The protein mixture in which PLA2α and Dsbc are separated from each other or Dsbc:PLA2α fusion protein (10 μgml^−1) was treated on the leaf of pla2α mutant by syringe infiltration, each in an amount of 0.5 μg. The enzyme activity of PLA2α was determined by in vitro analysis using substrate PE for a reaction mixture containing 10 mM Ca^2+ and 0.05% Triton X-100 in 50 mM Tris-HCl (pH 8.5). The mock-treated plant was infiltrated with a buffer (50 mM Tris-HCl, pH 8.0) or Dsbc protein. For inactivation of the PLA2α activity, recombinant PLA2α was pre-treated for 30 minutes at 30° C. with 2 μM manoalide as an irreversible inhibitor.
# [3] = biological target: T1, PLA2α (Arabidopsis thaliana, UniProt Q8S8N6); assay: In vitro analysis of PLA2 activity (inactivation by manoalide); format: biochemical; conditions: 2 μM manoalide, 30 minutes at 30° C.
# T1 construct: The mature form of the recombinant PLA2α protein was produced in Escherichia coli which is fused with Dsbc protein; DsbC; made in house; host or cells: Escherichia coli
# T1 sequence (Q8S8N6 21-148): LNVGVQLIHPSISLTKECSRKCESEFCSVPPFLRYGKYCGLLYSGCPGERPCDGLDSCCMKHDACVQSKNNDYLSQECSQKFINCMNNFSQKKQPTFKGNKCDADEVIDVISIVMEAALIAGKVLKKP
# Procedure: as §4
# [4] = system: NPR1; assay: NPR1 transition in transgenic plant carrying 35S::NPR1-eGFP; format: in vivo, Arabidopsis thaliana; conditions: 35S::NPR1-eGFP transgenic plants, observed 6 hours after spraying
# Procedure: NPR1 transition was determined by spraying LPE (100 nmol ml^−1 in 0.018% Silwet L-77), salicylic acid (0.3 mM in 0.018% Silwet L-77), or mock solution (0.018% Silwet L-77) to a transgenic plant carrying 35S::NPR1-eGFP, and observing, 6 hours later, the plant leaf with a laser scanning confocal microscope (Zeiss, Germany).
# [5] = system: salicylic acid, ethylene, and jasmonic acid; assay: Quantification of salicylic acid, ethylene and jasmonic acid in Arabidopsis leaf; format: in vivo, Arabidopsis thaliana
# Description: According to the method described before (Bowling et al., 1994, Plant Cell 6:1845-1857; Heck et al., 2003, Plant J. 36:342-352), salicylic acid, ethylene, and jasmonic acid were quantified from 0.5 g of a Arabidopsis leaf sample which has been sprayed with Pst-avrRpm1 suspension (1×10^8 CFU ml^−1 in 0.018% Silwet L-77) or LPE (100 nmol ml^−1 in 0.018% Silwet L-77 or 200 nmol ml^−1 in H2O).
# [6] = system: virulent Pst; assay: Acquirement of local immunity against virulent Pst by treatment with only LPE; format: in vivo, Arabidopsis thaliana; conditions: for bacterial growth of virulent Pst: compared to mock treatment
# Procedure: as §1, §2, §3
# [7] = system: Pst; assay: In vitro antibacterial activity against Pst; format: cell-based, Pseudomonas syringae pv. tomato DC3000
# Procedure: In order to determine the antibacterial activity of PLA2α, 3 μg of recombinant PLA2α in free and mature form, which has been prepared according to the method by Ryu et al. (Biochem Biophys Acta. 2005, 1736:144-151), was added to 100 μl of a solution (Tris-HCl (50 mM, pH 8.0), 10 mM calcium chloride (CaCl2)) in which virulent Pst (5×10^5 CFU ml^1) is suspended. The bacteria sample was cultured in a weak shaking state at 28° C. for 6 hours. Thereafter, only the survived bacteria were titrated. As a mock control group, a suspension in which the bacteria are suspended in a solution having no PLA2α was used.
# [8] = suppression of aging; cited from earlier work
molecule,measurement,setting,value
"lysophosphatidylglycerol [LPG, reference compound]",complementation of impaired local immunity of pla2α mutant plants (bacterial growth assay),[1],only a little
"CC1=C(CC/C(C)=C/CCC2=CC[C@H](C3=CC(=O)O[C@H]3O)O[C@H]2O)C(C)(C)CCC1 [manoalide, reference compound]",PR1 gene expression by rPLA2α catalytically inactivated with manoalide,[2]; rPLA2α pre-treated with PLA2 inhibitor manoalide,failed to induce PR1 gene expression
same,inactivation of the PLA2α activity,[3],Inactivation of the PLA2α activity caused by manoalide was confirmed
lysophosphatidylethanolamine 18:1 [LPE18:1],ACS gene expression,[2]; Arabidopsis leaves,exhibited ACS gene expression
same,LOX2 gene expression,[2]; Arabidopsis leaves,did not exhibit a significant increase in LOX2 gene expression
same,PAL1 expression,[2]; Arabidopsis leaves,did not elevate PAL1 expression
same,ICS1 gene expression,"[2]; Arabidopsis leaves, 6 h post-treatment",displayed ICS1 gene expression
same,PR1 gene expression in the sid2 mutant plants,[2]; sid2 mutant,failed to induce PR1 gene expression
same,expression of the PR genes PR1 and PDF1.2,"[2]; wild type leaf, LPE vs mock, absence of avirulent Pst",induced the expression of the PR genes PR1 and PDF1.2
same,NPR1 translocation from the cytoplasm to the nucleus,[4],activated NPR1 by inducing its translocation from the cytoplasm to the nucleus
same,recovery of phenotypic defect of pla2α mutant plant,[1]; FIG. 3A,recovery of phenotypic defect
same,complementation of impaired local immunity of pla2α mutant plants (bacterial growth assay),[1],complemented by LPE
same,ability of the pla2α mutant to induce local immune responses,[1]; pla2α mutant supplemented 1.5 h after inoculation of Pst-avrRpm1,restored the ability of the pla2α mutant to induce local immune responses
same,JA levels,[5]; Arabidopsis leaves,did not exhibit a significant increase
same,ethylene levels,[5]; Arabidopsis leaves,an increase in ethylene levels
same,increase in SA levels,[5]; Arabidopsis leaves treated with LPE18:1,2.5 fold
same,disease symptoms,[6]; LPE-sprayed leaves compared to mock-treated,much reduced
same,bacterial growth of virulent Pst,[6]; pla2α mutant plants,suppressed the bacterial growth
same,bacterial growth of virulent Pst,[6]; wild type plants,suppressed the bacterial growth
same,direct effect on bacterial growth in in vitro assays,[7],no direct effect on bacterial growth
same,biological efficacy compared with LPE 16:0 or LPE 18:0,[8],much higher biological efficacy
"O=C(O)c1ccccc1O [SA, salicylic acid, reference compound]",NPR1 translocation from the cytoplasm to the nucleus,[4],as did SA treatment
